Measured values as given in publication PMC9234961 (Journal of Medicinal Chemistry, 2022).
Read-outs that look alike come from different tables or passages of the source.

How the values were obtained:
[1] = biological target: kinases (468) (Homo sapiens, UniProt P42680); conditions: kinase TEC (Entrez TEC); compound concentration 1000 nM
[2] = biological target: kinases (468) (Homo sapiens, UniProt Q13188); conditions: MST2 (STK3); 1000 nM
[3] = biological target: kinases (468) (Homo sapiens, UniProt O94921); conditions: PFTK1 (CDK14); 1000 nM
[4] = biological target: kinases (468) (Homo sapiens, UniProt Q13554); conditions: CAMK2B; 1000 nM
[5] = biological target: kinases (468) (Homo sapiens, UniProt P49674); conditions: CSNK1E; 1000 nM
[6] = biological target: kinases (468) (Homo sapiens, UniProt P45985); conditions: MEK4 (MAP2K4); 1000 nM
[7] = biological target: kinases (468) (Homo sapiens, UniProt P32298); conditions: GRK4; 1000 nM
[8] = biological target: kinases (468) (Homo sapiens, UniProt P46734); conditions: MEK3 (MAP2K3); 1000 nM
[9] = biological target: kinases (468) (Homo sapiens, UniProt Q96NX5); conditions: CAMK1G; 1000 nM
[10] = biological target: kinases (468) (Homo sapiens, UniProt P51957); conditions: NEK4; 1000 nM
[11] = biological target: kinases (468) (Homo sapiens, UniProt Q13043); conditions: MST1 (STK4); 1000 nM
[12] = biological target: kinases (468) (Homo sapiens, UniProt Q16832); conditions: DDR2; 1000 nM
Chain of kinases (468) (Homo sapiens, UniProt Q16832) (Q16832 22-855): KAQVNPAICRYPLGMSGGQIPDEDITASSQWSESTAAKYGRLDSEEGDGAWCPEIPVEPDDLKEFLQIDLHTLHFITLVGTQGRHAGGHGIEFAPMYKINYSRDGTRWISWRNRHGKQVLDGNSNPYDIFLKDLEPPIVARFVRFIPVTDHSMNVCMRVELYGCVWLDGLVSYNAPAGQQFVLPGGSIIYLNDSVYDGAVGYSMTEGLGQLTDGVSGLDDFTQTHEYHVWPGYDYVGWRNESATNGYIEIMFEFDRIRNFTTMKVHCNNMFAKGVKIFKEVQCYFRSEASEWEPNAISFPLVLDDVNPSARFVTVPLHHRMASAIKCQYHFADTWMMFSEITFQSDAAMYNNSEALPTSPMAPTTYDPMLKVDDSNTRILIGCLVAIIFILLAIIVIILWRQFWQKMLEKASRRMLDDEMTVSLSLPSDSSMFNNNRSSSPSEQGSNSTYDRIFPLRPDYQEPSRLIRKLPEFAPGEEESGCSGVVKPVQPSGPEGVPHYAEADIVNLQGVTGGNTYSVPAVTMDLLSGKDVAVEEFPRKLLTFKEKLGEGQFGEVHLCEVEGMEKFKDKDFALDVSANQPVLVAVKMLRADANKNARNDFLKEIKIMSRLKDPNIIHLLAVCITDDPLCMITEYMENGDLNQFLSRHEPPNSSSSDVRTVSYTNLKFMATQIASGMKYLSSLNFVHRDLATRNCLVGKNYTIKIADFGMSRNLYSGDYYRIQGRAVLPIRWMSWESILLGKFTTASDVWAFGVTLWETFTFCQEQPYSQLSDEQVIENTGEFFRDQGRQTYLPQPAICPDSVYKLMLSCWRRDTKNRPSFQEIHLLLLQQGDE

[13] = biological target: kinases (468) (Homo sapiens, UniProt P17612); conditions: PKAC-alpha (PRKACA); 1000 nM
[14] = biological target: kinases (468) (Homo sapiens, UniProt P36896); conditions: ACVR1B; 1000 nM
Chain of kinases (468) (Homo sapiens, UniProt P36896) (P36896 24-505): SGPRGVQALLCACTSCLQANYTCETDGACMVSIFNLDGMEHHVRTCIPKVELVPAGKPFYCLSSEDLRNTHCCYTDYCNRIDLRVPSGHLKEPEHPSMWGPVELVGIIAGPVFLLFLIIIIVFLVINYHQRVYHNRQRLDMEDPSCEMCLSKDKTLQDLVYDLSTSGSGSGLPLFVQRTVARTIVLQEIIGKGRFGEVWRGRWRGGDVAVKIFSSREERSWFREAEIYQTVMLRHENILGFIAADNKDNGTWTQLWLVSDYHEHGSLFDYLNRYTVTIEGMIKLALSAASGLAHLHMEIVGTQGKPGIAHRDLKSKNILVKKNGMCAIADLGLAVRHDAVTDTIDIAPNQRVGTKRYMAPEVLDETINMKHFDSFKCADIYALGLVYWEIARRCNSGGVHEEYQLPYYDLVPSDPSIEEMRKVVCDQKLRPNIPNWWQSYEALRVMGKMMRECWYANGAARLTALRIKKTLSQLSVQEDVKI

[15] = biological target: kinases (468) (Homo sapiens, UniProt P50750); conditions: CDK9; 1000 nM
Chain of kinases (468) (Homo sapiens, UniProt P50750) (P50750 whole entry): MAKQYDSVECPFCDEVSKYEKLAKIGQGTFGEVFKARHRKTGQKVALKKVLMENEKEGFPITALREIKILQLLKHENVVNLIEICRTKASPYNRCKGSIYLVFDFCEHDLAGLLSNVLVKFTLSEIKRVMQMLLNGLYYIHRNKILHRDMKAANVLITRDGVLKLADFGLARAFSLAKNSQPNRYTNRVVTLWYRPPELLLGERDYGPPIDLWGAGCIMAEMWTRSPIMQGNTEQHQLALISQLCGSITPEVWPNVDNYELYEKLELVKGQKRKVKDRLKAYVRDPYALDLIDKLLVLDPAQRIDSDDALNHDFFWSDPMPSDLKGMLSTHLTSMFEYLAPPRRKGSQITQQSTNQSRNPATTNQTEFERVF

[16] = biological target: kinases (468) (Homo sapiens, UniProt P53355); conditions: DAPK1; 1000 nM
[17] = biological target: kinases (468) (Homo sapiens, UniProt P19784); conditions: CSNK2A2; 1000 nM
[18] = biological target: kinases (468) (Homo sapiens, UniProt Q6P3R8); conditions: NEK5; 1000 nM
[19] = biological target: kinases (468) (Homo sapiens, UniProt P22455); conditions: FGFR4; 1000 nM
[20] = biological target: kinases (468) (Homo sapiens, UniProt Q15139); conditions: PRKD1; 1000 nM
[21] = biological target: kinases (468) (Homo sapiens, UniProt P29320); conditions: EPHA3; 1000 nM
[22] = biological target: kinases (468) (Homo sapiens, UniProt Q9H093); conditions: kinase SNARK (Entrez NUAK2); compound concentration 1000 nM
[23] = biological target: kinases (468) (Homo sapiens, UniProt P36894); conditions: BMPR1A; 1000 nM
Chain of kinases (468) (Homo sapiens, UniProt P36894) (P36894 24-532): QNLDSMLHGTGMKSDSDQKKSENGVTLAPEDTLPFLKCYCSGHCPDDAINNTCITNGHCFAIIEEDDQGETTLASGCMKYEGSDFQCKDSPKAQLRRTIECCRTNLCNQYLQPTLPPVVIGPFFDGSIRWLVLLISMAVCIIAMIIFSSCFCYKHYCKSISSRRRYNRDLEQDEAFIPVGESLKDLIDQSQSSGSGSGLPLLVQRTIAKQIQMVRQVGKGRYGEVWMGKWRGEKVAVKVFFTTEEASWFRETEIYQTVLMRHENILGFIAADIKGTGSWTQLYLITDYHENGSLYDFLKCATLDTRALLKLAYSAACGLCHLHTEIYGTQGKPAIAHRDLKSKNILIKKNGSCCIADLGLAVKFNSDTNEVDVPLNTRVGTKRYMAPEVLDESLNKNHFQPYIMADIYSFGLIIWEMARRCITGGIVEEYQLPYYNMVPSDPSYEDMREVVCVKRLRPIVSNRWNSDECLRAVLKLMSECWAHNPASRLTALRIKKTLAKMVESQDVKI

[24] = biological target: kinases (468) (Homo sapiens, UniProt Q9BQI3); conditions: EIF2AK1; 1000 nM
[25] = biological target: kinases (468) (Homo sapiens, UniProt Q8N5S9); conditions: CAMKK1; 1000 nM
Chain of kinases (468) (Homo sapiens, UniProt Q8N5S9) (Q8N5S9 whole entry): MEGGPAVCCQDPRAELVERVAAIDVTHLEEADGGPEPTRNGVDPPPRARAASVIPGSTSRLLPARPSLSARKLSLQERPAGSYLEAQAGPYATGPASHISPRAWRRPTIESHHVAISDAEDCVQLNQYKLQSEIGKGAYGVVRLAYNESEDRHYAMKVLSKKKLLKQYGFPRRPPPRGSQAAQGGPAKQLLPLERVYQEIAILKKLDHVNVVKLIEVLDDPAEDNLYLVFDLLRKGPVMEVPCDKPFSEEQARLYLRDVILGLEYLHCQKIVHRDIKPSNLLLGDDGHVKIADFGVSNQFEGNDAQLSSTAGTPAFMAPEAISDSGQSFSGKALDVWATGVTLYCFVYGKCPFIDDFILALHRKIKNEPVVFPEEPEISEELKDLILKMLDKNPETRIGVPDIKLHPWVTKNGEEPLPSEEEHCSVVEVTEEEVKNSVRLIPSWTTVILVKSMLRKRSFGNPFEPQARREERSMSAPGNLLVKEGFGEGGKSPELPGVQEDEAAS

[26] = biological target: kinases (468) (Homo sapiens, UniProt P42338); conditions: PIK3CB; 1000 nM
[27] = biological target: kinases (468) (Homo sapiens, UniProt Q8NI60); conditions: ADCK3 (CABC1); 1000 nM
[28] = biological target: kinases (468) (Homo sapiens, UniProt O14936); conditions: CASK; 1000 nM
Chain of kinases (468) (Homo sapiens, UniProt O14936) (O14936 whole entry): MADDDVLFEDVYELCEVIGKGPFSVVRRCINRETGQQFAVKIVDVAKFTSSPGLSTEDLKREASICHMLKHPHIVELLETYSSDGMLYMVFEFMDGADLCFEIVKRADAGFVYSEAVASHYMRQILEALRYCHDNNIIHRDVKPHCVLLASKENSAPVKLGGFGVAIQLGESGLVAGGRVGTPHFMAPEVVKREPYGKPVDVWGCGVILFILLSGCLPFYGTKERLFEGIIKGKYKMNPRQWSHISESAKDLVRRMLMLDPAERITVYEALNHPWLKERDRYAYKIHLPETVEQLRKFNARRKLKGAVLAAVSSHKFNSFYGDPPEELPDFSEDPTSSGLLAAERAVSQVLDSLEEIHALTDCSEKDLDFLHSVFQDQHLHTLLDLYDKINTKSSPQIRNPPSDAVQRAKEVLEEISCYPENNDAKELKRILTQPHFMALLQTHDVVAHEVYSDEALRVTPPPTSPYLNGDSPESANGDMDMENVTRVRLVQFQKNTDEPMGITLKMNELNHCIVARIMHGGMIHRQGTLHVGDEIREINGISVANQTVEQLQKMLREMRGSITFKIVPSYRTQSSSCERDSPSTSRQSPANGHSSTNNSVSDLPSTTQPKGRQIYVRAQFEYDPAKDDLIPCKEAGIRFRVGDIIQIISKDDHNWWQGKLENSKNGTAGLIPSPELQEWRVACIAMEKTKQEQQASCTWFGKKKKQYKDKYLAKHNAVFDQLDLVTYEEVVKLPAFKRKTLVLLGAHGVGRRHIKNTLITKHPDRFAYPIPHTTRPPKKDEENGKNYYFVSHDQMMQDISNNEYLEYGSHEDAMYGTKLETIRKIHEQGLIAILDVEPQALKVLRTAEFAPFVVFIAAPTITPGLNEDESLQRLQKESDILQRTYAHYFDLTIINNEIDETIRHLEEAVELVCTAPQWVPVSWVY

[29] = biological target: kinases (468) (Homo sapiens, UniProt O75582); conditions: compound concentration 1000 nM
Chain of kinases (468) (Homo sapiens, UniProt O75582) (O75582 whole entry): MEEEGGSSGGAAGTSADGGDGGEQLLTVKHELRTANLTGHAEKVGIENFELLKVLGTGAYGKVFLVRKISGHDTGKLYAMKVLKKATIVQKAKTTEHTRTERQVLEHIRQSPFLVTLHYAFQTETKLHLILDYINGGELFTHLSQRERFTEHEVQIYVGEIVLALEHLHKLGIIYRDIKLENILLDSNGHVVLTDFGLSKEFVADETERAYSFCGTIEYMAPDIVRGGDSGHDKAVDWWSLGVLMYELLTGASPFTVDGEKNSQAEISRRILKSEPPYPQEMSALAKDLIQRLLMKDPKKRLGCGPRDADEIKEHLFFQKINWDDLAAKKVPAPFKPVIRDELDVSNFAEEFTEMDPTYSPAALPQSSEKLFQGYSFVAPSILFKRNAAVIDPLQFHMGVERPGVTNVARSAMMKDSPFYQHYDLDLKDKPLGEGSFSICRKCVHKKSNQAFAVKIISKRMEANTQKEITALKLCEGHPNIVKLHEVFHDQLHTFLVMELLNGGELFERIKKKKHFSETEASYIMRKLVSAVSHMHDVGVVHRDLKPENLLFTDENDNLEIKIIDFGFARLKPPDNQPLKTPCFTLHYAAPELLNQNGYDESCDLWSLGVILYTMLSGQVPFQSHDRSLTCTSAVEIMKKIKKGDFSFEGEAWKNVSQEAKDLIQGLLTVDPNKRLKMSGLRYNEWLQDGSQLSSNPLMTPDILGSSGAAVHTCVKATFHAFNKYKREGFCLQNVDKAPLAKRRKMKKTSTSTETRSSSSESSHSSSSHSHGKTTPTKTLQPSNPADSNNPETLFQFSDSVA

[30] = biological target: kinases (468) (Homo sapiens, UniProt P20794); conditions: MAK; 1000 nM
[31] = biological target: kinases (468) (Homo sapiens, UniProt O95747); conditions: OSR1 (OXSR1); 1000 nM
Chain of kinases (468) (Homo sapiens, UniProt O95747) (O95747 whole entry): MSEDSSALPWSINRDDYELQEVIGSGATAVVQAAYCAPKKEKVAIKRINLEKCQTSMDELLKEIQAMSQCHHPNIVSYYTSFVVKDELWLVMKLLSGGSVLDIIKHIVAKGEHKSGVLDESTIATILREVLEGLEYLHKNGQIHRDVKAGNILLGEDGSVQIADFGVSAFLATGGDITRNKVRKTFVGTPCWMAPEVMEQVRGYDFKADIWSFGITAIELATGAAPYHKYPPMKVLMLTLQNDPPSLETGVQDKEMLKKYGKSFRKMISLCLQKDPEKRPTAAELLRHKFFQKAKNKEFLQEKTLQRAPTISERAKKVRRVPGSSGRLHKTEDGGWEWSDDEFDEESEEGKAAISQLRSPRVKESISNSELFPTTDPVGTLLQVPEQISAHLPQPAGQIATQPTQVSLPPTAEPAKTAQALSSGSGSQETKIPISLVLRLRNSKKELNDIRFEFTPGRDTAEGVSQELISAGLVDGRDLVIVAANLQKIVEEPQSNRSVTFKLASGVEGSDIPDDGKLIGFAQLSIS

[32] = biological target: kinases (468) (Homo sapiens, UniProt Q96J92); conditions: kinase WNK4 (Entrez WNK4); compound concentration 1000 nM
[33] = biological target: kinases (468) (Homo sapiens, UniProt O15075); conditions: DCAMKL1 (DCLK1); 1000 nM
[34] = biological target: kinases (468) (Homo sapiens, UniProt Q02763); conditions: kinase TIE2 (Entrez TEK); compound concentration 1000 nM
[35] = biological target: kinases (468) (Homo sapiens, UniProt Q15835); conditions: GRK1; 1000 nM

Structure (SMILES): C[C@H]1C[C@@H](O)CN(c2ncc(Cl)c(Nc3ccc4c(c3)c3c(c(=O)n4C)OCC(F)(F)[C@H](C4CC4)N3)n2)C1 [CCT373566_9A]
- Percent Control [1]: 94%
- Percent Control [2]: 100%
- Percent Control [3]: 95%
- Percent Control [4]: 76%
- Percent Control [5]: 90%
- Percent Control [6]: 90%
- Percent Control [7]: 91%
- Percent Control [8]: 100%
- Percent Control [9]: 96%
- Percent Control [10]: 91%
- Percent Control [11]: 99%
- Percent Control [12]: 100%
- Percent Control [13]: 100%
- Percent Control [14]: 100%
- Percent Control [15]: 96%
- Percent Control [16]: 83%
- Percent Control [17]: 100%
- Percent Control [18]: 100%
- Percent Control [19]: 100%
- Percent Control [20]: 98%
- Percent Control [21]: 85%
- Percent Control [22]: 100%
- Percent Control [23]: 100%
- Percent Control [24]: 72%
- Percent Control [25]: 99%
- Percent Control [26]: 85%
- Percent Control [27]: 100%
- Percent Control [28]: 92%
- Percent Control ([29]; kinase RPS6KA5(Kin.Dom.1-N-terminal) (Entrez RPS6KA5)): 93%
- Percent Control ([29]; kinase RPS6KA5(Kin.Dom.2-C-terminal) (Entrez RPS6KA5)): 96%
- Percent Control [30]: 93%
- Percent Control [31]: 100%
- Percent Control [32]: 42%
- Percent Control [33]: 100%
- Percent Control [34]: 100%
- Percent Control [35]: 100%
